The source of these data is US10940139B2, “Compounds that interact with the Ras superfamily for the treatment of cancers, inflammatory diseases, rasopathies, and fibrotic disease” (Shy Therapeutics LLC, priority 2017, dated 2021).

SMILES strings stand for the structures.

KRas G12D/Q61H double mutant, sequence (P01116-2 other isoform, or with tags, fused parts or gaps G12D/Q61H): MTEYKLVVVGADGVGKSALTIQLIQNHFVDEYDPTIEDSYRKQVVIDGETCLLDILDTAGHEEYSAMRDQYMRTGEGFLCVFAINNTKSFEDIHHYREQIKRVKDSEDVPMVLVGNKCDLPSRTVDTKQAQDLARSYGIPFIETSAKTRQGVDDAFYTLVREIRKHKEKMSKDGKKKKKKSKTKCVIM

The target in the first assay is KRas G12D/Q61H double mutant (Homo sapiens (Human), UniProt P01116, G12D/Q61H). Nature of the assay: Ras GTP binding domain inhibition assay (labeled GTP). To be noted: 20 μM compound. The protocol:
Buffer-I: • 50 mM Tris, pH 7.5 • 150 mM NaCl (optional) • 1 mM MgCl2 • 1 mM DTT. • KRas G12D mutant protein was expressed as a His-tagged protein. Purified His-KRas G12D protein was diluted in buffer-I to a final concentration of 3-10 μg/ml. • 200 μl of the diluted His-KRas G12D protein was added to a nickel coated 96 well plate and incubated overnight at 4° C. • The next day, wells were washed 3× in 200 μl of Buffer-I. • Then 200 μl of Buffer-I were added to each well in the presence of 1% DMSO. • Tested compounds were added to the protein-coated wells at a concentration of 20 μM, and incubated for 3 hours at room temperature. While performing IC50 measurements a serial dilution of all tested concentrations was prepared.
Then 22 μl of Cy3-GTP or Cy5-GTP was added to each well. The labeled GTP was incubated for 45 min. at room temperature. • Following GTP incubation, wells were washed 3× in Buffer-I, and 200 μl of Buffer-I were added to each well. • Following washes, the amount of bound labeled-GTP was measured with an Eppendorf AF2200 plate reader.
By substituting KRas G12D mutant protein with KRas G12C mutant, KRas wild type, KRas Q61H mutant, KRas G12D/Q61H double mutant or KRas G12C/Q61H double mutant under the assay conditions described above, KRas G12C mutant KRas wild type, KRas Q61H mutant, KRas G12D/Q61H double mutant and KRas G12C/Q61H double mutant inhibition, respectively, were each determined.
Consider `COc1cccc(OCCn2c(CN3CCCCC3)nc3ccccc32)c1` [drawing 3033], for which the “% Inhibition at 20 μM KRas G12D Q61H” value is given as “B (B = 25-50% inhibition)”.

The assay is the same for the next values; noted with them: 20 μM compound; KRas G12D/Q61H double mutant; read-out: % Inhibition at 20 μM of K-Ras mutant and wild-type protein, KRas G12D Q61H.
Turning to `COCCNc1ccc([N+](=O)[O-])cc1C(=O)OCCOc1ccccc1`, the inhibition at 20 µM was 25 to 50%.

In the case of `Cc1nn(Cc2ccccc2Cl)c(C)c1CN(C)S(=O)(=O)c1cccs1`, the inhibition at 20 µM lay within 1 to 25%.

As for `CN(Cc1nnc(-c2ccc(F)cc2)o1)CC12CC3CC(CC(C3)C1)C2`, the inhibition at 20 µM fell in the range of 25 to 50%.

For `CN(Cc1ccccc1N1CCOCC1)C(=O)c1ccc(OCc2ccccc2)cc1`, the inhibition at 20 µM is 1 to 25%.

As to `Cc1ccc2c(c1)C1CN(C)CCC1N2Sc1ccc(Cl)cc1` (stereo not shown), the inhibition at 20 µM was 25 to 50%.

Turning to `Cc1ccc(C(=O)Oc2cccc(C3CN(C(=O)c4ccc(C)s4)CCO3)c2)s1` (stereo not shown), the inhibition at 20 µM fell in the range of 1 to 25%.

In the case of `O=[N+]([O-])c1ccc(O)c2ncccc12`, the inhibition at 20 µM is 25 to 50%.

Consider `CCOc1ccc(C2=NN(C(=O)CC)C(c3ccc(CC)cc3)C2)cc1` (stereo not shown), for which the inhibition at 20 µM is 25 to 50%.

`O=c1c(Cc2cc(Cl)c3cccnc3c2O)c(O)oc2ccccc12`: the inhibition at 20 µM is 25 to 50%.

Consider `O=C(COC1CCCCC1)Nc1nnc(-c2ccccn2)[nH]1`, for which the inhibition at 20 µM was 51 to 75%.

As to `CCn1c(SCc2csc(-c3ccc(OC)c(OC)c3)n2)nc2ccccc21`, the inhibition at 20 µM is 25 to 50%.

On to `COCCn1c(SC(C)c2nc(-c3cccnc3)no2)nc2cc(Cl)ccc2c1=O` (stereo not shown), for which the inhibition at 20 µM is 25 to 50%.

Turning to `O=C(CN(Cc1csc(COc2ccc(F)cc2)n1)Cc1ccco1)Nc1ccccc1`, the inhibition at 20 µM is 25 to 50%.

Take `CCCOc1ccc2ccccc2c1CN(C)Cc1nnc(-c2ccccc2)o1`: the inhibition at 20 µM lay in the range of 25 to 50%.

On to `COC(=O)CCc1sc(NC2CCCCC2)nc1-c1ccc(OC)cc1`, for which the inhibition at 20 µM was 25 to 50%.

Turning to `C=CCn1c(C)cc(C(=O)CSc2nc3ccccc3c(=O)n2C(C)COC)c1C` (stereo not shown), the inhibition at 20 µM lay in the range of 25 to 50%.

Take `CCCn1c(CNc2cccc(Cl)c2OCCOCC)nc2cc(S(=O)(=O)N(C)C)ccc21`: the inhibition at 20 µM is 25 to 50%.

Take `CCOC(=O)c1ccc2c(c1)n(Cc1occc1C(=O)OC)c(=O)n2CC`: the inhibition at 20 µM was 1 to 25%.

With `O=C(COC1CCCC1)Nc1nnc(-c2ccccn2)[nH]1`, the inhibition at 20 µM fell in the range of 51 to 75%.

On to `O=c1[nH]c(CN(CCc2ccc(Cl)cc2)Cc2nc3ccsc3c(=O)[nH]2)nc2ccsc12`, for which the inhibition at 20 µM is 25 to 50%.

Turning to `CCCN(CC1CC1)S(=O)(=O)Oc1ccc(N(C)S(=O)(=O)c2cccs2)cc1`, the inhibition at 20 µM was 25 to 50%.

Take `CC1CCCN(S(=O)(=O)c2ccc(NCc3ccc(C(=O)N(C)C(C)C)cc3)c([N+](=O)[O-])c2)C1` (stereo not shown): the inhibition at 20 µM fell in the range of 25 to 50%.

The same assay, now with this note: 20 μM compound; read-out: % Inhibition at 20 μM KRas G12D Q61H.
For the compound `Cc1cc(C(C)C)ccc1OCC(=O)N1N=CCC1(O)C(F)(F)F` (stereo not shown), the inhibition at 20 µM lay within 25 to 50%.

As for `O=C(Cc1ccc(Cl)cc1)Nc1nnc(-c2ccccn2)[nH]1`, the inhibition at 20 µM is 25 to 50%.

On to `CC(C)COC(C)c1noc(CN(Cc2ccccc2O)C(C)c2ccccc2)n1` (stereo not shown), for which the inhibition at 20 µM fell in the range of 1 to 25%.

For `Cc1ccccc1CC(=O)Nc1nnc(-c2ccccn2)[nH]1`, the inhibition at 20 µM is 25 to 50%.

Take `Cc1cnc(-c2ccccn2)nc1NC(=O)COCc1ccnc(O)c1` [drawing 2816]: the inhibition at 20 µM fell in the range of 25 to 50%.

With `Cc1ccccc1Oc1ncccc1NCc1csc(-c2ccccn2)n1`, the inhibition at 20 µM lay in the range of 25 to 50%.

On to `OCC1CCCN(c2nc(-c3ccccn3)nc3scc(-c4ccccc4)c23)C1` (stereo not shown), for which the inhibition at 20 µM lay in the range of 25 to 50%.

For `COc1ccc(-c2nc(C(=O)NCc3ccccn3)cs2)cc1`, the inhibition at 20 µM lay in the range of 1 to 25%.

On to `COCCN(CCOC)c1nc(-c2ccccn2)nc2scc(C(=O)NCCc3cnc(O)nc3)c12` [drawing 2812], for which the inhibition at 20 µM is 1 to 25%.

Turning to `O=C(Nc1nnc(-c2ccccn2)[nH]1)C1CCCN(c2ncccc2C(F)(F)F)C1` (stereo not shown), the inhibition at 20 µM is 51 to 75%.

Turning to `O=C(Nc1nnc(-c2ccccn2)[nH]1)c1cc(Cl)sc1Cl`, the inhibition at 20 µM is 25 to 50%.

Take `O=C(Nc1nnc(-c2ccccn2)[nH]1)C(F)(F)c1ccccc1`: the inhibition at 20 µM lay within 25 to 50%.

On to `O=C(NCCc1ccc(O)nc1)c1csc2nc(-c3ccccn3)nc(N3CCOCC3)c12` [drawing 2809], for which the inhibition at 20 µM is 1 to 25%.

`Cc1nc(CC(C)C)sc1C(=O)Nc1nnc(-c2ccccn2)[nH]1`: the inhibition at 20 µM was in the range of 1 to 25%.

Regarding `CC(C)N(Cc1ccccn1)Cc1nc2ccccc2n1C(F)F`, the inhibition at 20 µM fell in the range of 1 to 25%.

With `CCc1cc(NNC(=O)C2CC2)nc(-c2ccccn2)n1`, the inhibition at 20 µM lay within 1 to 25%.

For `N#CC1CN(c2nccc(C(F)(F)F)n2)CCN1Cc1ccccc1` (stereo not shown), the inhibition at 20 µM lay in the range of 1 to 25%.

As to `O=C(Nc1nnc(-c2ccccn2)[nH]1)C1CC(c2ccccc2)C1` (stereo not shown), the inhibition at 20 µM was in the range of 25 to 50%.

Turning to `C#Cc1cccc(N(CC(=O)N2CCOCC2)C(=O)c2ccc(COc3ccccc3F)o2)c1`, the inhibition at 20 µM lay within 1 to 25%.

For the compound `Cc1ccc(OCCn2c(CN3CCCCC3)nc3ccccc32)cc1`, the inhibition at 20 µM fell in the range of 25 to 50%.

In the case of `Clc1ccccc1-c1nnc(CN2CCCc3ccccc32)o1`, the inhibition at 20 µM is 25 to 50%.

For the compound `Cc1ccc(NC(=O)c2sc3nc(-c4ncccn4)[nH]c(=O)c3c2C)c(C)c1`, the inhibition at 20 µM was in the range of 1 to 25%.

Turning to `O=C(Nc1nnc(-c2ccccn2)[nH]1)c1ccc(Oc2ccccc2)cc1`, the inhibition at 20 µM lay within 25 to 50%.

For the compound `N#Cc1ccc(CC(=O)Nc2nc(-c3ccccn3)nc3sccc23)cc1` [drawing 2817], the inhibition at 20 µM lay within 1 to 25%.

Turning to `Cn1nc(-c2ccncc2)cc1NC(=O)c1cccnc1`, the inhibition at 20 µM lay within 1 to 25%.

As for `CCOC(=O)C1CCCC1N(Cc1cccc([N+](=O)[O-])c1)C1CC1` (stereo not shown), the inhibition at 20 µM lay within 25 to 50%.

With `COc1ccc(NC(=O)CN(C)Cc2coc(-c3cccs3)n2)cc1`, the inhibition at 20 µM is 25 to 50%.

Regarding `O=c1[nH]c(-c2cnc(Oc3ccccc3)cn2)nc2ccsc12`, the inhibition at 20 µM fell in the range of 1 to 25%.

As to `CC1CCN(C(=O)c2csc3c(O)nc(-c4ccccn4)nc23)CC1` [drawing 2674], the inhibition at 20 µM was 51 to 75%.

As for `Cc1csc(C2CN(Cc3ccn(C)c(=O)c3)CCO2)n1` (stereo not shown), the inhibition at 20 µM was in the range of 1 to 25%.

With `O=C1NCCCC1Nc1cc(C(F)(F)F)nc(-c2ccccn2)n1` (stereo not shown), the inhibition at 20 µM lay in the range of 1 to 25%.

In the case of `COc1ccc(COCC(=O)Nc2ccnc(-c3ccccn3)n2)cn1` [drawing 2699], the inhibition at 20 µM lay in the range of 25 to 50%.

In the case of `CCN(CC)S(=O)(=O)c1ccc(N2CCCC2)c(C(=O)NCCCn2cnc3ccccc32)c1`, the inhibition at 20 µM was in the range of 25 to 50%.

As to `CS(=O)(=O)CCCC(=O)N1CCCc2c(O)nc(-c3ccccn3)nc21` [drawing 2650], the inhibition at 20 µM lay in the range of 51 to 75%.

Regarding `Nc1nc(O)c2scc(C(=O)N3CCN(c4ccccc4)CC3)c2n1`, the inhibition at 20 µM lay in the range of 25 to 50%.

Take `CC(Nc1nc(-c2ccccn2)nc2c1CCC2)c1ccncc1` (stereo not shown): the inhibition at 20 µM was 25 to 50%.

With `CCc1cc(CNc2cc(C)c([N+](=O)[O-])c(C(=O)OC)c2)on1`, the inhibition at 20 µM lay within 25 to 50%.

On to `N#Cc1ccccc1S(=O)(=O)NC(c1ccccc1)c1ccccn1` (stereo not shown), for which the inhibition at 20 µM was in the range of 1 to 25%.

Still in this assay, the particulars now being: 20 μM; read-out: KRas G12D Q61H % Inh.
Take `CCn1nnc2cc(C(=O)Nc3nnc(-c4ccccn4)[nH]3)ccc21` [drawing 2507]: the inhibition at 20 µM is 51 to 75%.

On to `CN(CC(=O)Nc1nnc(-c2ccccn2)[nH]1)Cc1ccccc1` [drawing 2537], for which the inhibition at 20 µM fell in the range of 51 to 75%.

`CCOc1cc(S(=O)(=O)N(Cc2ccccc2)Cc2ccccc2)c(OCC)cc1C` [drawing 2624]: the inhibition at 20 µM is 25 to 50%.

`O=C(Nc1nnc(-c2ccccn2)[nH]1)c1nc(N2CCOCC2)ncc1Cl` [drawing 2508]: the inhibition at 20 µM lay in the range of 51 to 75%.

Take `O=C(Nc1nnc(-c2ccccn2)[nH]1)c1ccc(=O)n(CCOc2ccccc2)n1` [drawing 2553]: the inhibition at 20 µM was in the range of 51 to 75%.

`Cc1cccc(C)c1OCCOC(=O)c1ccccc1SCCOc1c(C)cccc1C` [drawing 2636]: the inhibition at 20 µM fell in the range of 51 to 75%.

Turning to `CNC(=O)c1sc2[nH]c(-c3ccccn3)nc(=O)c2c1C` [drawing 2584], the inhibition at 20 µM is 25 to 50%.

Regarding `O=C(Nc1nnc(-c2ccccn2)[nH]1)C1CC(=O)N(CCc2ccccc2)C1` (stereo not shown) [drawing 2494], the inhibition at 20 µM lay within 51 to 75%.

Consider `Cc1nc(-c2ccccn2)sc1C(=O)Nc1nnc(-c2ccccn2)[nH]1` [drawing 2532], for which the inhibition at 20 µM lay within 51 to 75%.

For `CS(=O)(=O)c1cccc(C(=O)Nc2nnc(-c3ccccn3)[nH]2)c1`, the inhibition at 20 µM was 51 to 75%.

Turning to `O=C(Nc1nnc(-c2ccccn2)[nH]1)c1csc(-c2ccoc2)n1`, the inhibition at 20 µM lay in the range of 76 to 100%.

Take `COc1ccc(NC(=O)CCc2c(C)nc(-c3ccccn3)nc2O)cn1` [drawing 2594]: the inhibition at 20 µM is 51 to 75%.

As for `O=C(COCCOc1ccccc1)Nc1nnc(-c2ccccn2)[nH]1` [drawing 2564], the inhibition at 20 µM lay within 76 to 100%.

Regarding `CC(Oc1ccc(C(=O)Nc2nnc(-c3ccccn3)[nH]2)cn1)c1ccccc1` (stereo not shown) [drawing 2512], the inhibition at 20 µM lay within 51 to 75%.

As for `O=C(Cn1c(=O)oc2ccccc21)Nc1nnc(-c2ccccn2)[nH]1` [drawing 2502], the inhibition at 20 µM lay within 51 to 75%.
